Experiments:
[1] = Temperature rise under near infrared radiation; type: physicochemical; settings: 100 mmol in agarose; near infrared 600 nm to 1600 nm, 10 W
Description: Next, a diatomic Fe salen complex compound (CAS#14167-12-5; produced by Tokyo Chemical Industry Co., Ltd.) was dissolved in agarose to produce a 100 mmol solution, which was put in a test tube, thereby preparing a sample. A sample of pure water put in a test tube was also prepared as a comparison. Then, these samples were respectively exposed to medical near infrared radiation (wavelengths: 600 nm to 1600 nm) by TOKYO IKEN CO., LTD. by using Super Lizer PX Type I (output: 10 W).

[2] = Magnetic field-magnetization curve (MPMS7); type: physicochemical; settings: magnetic field less than 10000 Oe (1 T); 37 degrees Celsius
Description: However, when the magnetic field exceeds 10000 Oe (1 T), the Co salen complex compound or the Mn salen complex compound has large magnetization and is most suited for magnetic induction drug delivery systems which use superconducting magnets.

[3] = Temperature rise of ointments under AC magnetic field; type: physicochemical; settings: AC field 258 A, 400 kHz, 51.74 mT; for temperature rise of ointment: 300 seconds
Description: The aforementioned Fe salen complex compound was mixed with Vaseline, which is an adjuster for ointments, as a base at concentrations of 100 mmol and 200 mmol, respectively, to produce ointments. Then, the relationship between time and a temperature rise was measured by applying an AC magnetic field to these ointments under conditions of 258 A, 400 kHz, and 51.74 mT.
Then, the compound expressed by the aforementioned Formula (I) was mixed with Kenalog, which is an ointment for stomatitis, as a base at concentrations of 100 mmol and 200 mmol, respectively, to produce ointments. Then, the relationship between time and a temperature rise was measured by applying an AC magnetic field to these ointments under conditions of 258 A, 400 kHz, and 51.74 mT.
Next, as comparisons, the relationship between time and a temperature rise was measured by applying an AC magnetic field to each of 200 mg Vaseline and 200 mg Kenalog under conditions of 258 A, 400 kHz, and 51.74 mT.

[4] = system: Clone M3 melanoma cells; assay: Melanoma growth in mouse tail with local magnetic field; type: in vivo; settings: for melanoma extension (area of melanoma pigmentation): 12 days after initial injection, saline group 100%; for histological examination, tumor expansion of melanoma: HE, anti-Ki-67, anti-Cyclyn D1 staining
Description: Melanoma was established in mouse tails in vivo by local grafting of cultured melanoma cells (Clone M3 melanoma cells). Incidentally, FIG. 11(1) is a photograph showing the effects of a saline group (saline) into which the saline water was injected instead of the Fe salen complex compound; FIG. 11(2) is a photograph showing the effects of a group (SC) into which the Fe salen complex compound was injected without applying the magnetic field; and FIG. 11(3) is a photograph showing the effect of a group (SC+Mag) into which the Fe salen complex compound was injected while applying the magnetic field (n=7-10).
The Fe salen complex compound (50 mg/kg) was administered intravenously via tail vein, followed by local application of a magnetic field by the use of a commercially available bar magnet (630 mT, a cylindrical neodymium magnet, 150 mm long and 20 mm in diameter). Application of a bar magnet was performed with 3 hour gentle contact with the site of melanoma immediately after injection of the Fe salen complex compound for 10-14 days.
Application of the bar magnet was performed in such a way so that the magnetic field strength became maximal over the area of expected melanoma extension, which was approximately […] or shorter in a mouse tail for a growth period of 2 weeks. Twelve days after the initial injection of the Fe salen complex compound, the extension of melanoma was evaluated by assessing the area of melanoma pigmentation.
A histological examination was performed as shown in FIG. 13 by means of Hematoxylin-Eosin staining and immuno-histochemical staining with an anti-Ki-67 antibody and an anti-Cyclyn D1 antibody which are both tumor proliferation markers in tissue sections.

[5] = Magnetic guidance of i.v. drug to right kidney, SNR by MRI; type: in vivo; settings: mouse, intravenous; about 0.3 T at right kidney; after 10 minutes; vs left kidney and control
Description: Next, an guidance example using a guidance system will be described. […] The metal plate 236, especially an iron plate, is placed between the pair of magnets 230 and 232 so that a magnetic field of locally uniform and strong strength can be created. An electrical magnet can be used instead of a magnet to modify the magnetic force generated in this guidance system. The magnetism-generating means can be moved to a target position of the individual on a table to allow the pair of magnetism-generating means to move in the X, Y, and Z directions. The tissue of an individual can be placed in the region of the magnetic field to concentrate the drug in the tissue.
More specifically, for example, the aforementioned Fe salen complex compound (drug concentration: 5 mg/mL (15 mM)) was injected intravenously into a mouse weighing about 30 g, a laparotomy was performed, and the mouse was placed on the iron plate 236 to locate its right kidney between the pair of magnets 230 and 232. […]
Together with the left kidney and a kidney to which no field was applied (control), a magnetic field was applied to the right kidney of the mouse; and after 10 minutes the SNR was measured by MRI in T1 mode and T2 mode.

[6] = system: rat L6 cell; assay: Rat L6 cell culture with bar magnet, cell count proximal vs distal to the magnet; type: cell-based; settings: after 48 hours, bar magnet at flask
Description: Culture medium was sprinkled with metal-salen complex compound powder, which is obtained with respect to each of the Fe salen complex compound, the Mn salen complex compound, the Cr salen complex compound, and the Co salen complex compound by the above-described method, in amounts allowing magnetic attraction to be visibly observed at a rat L6 cell confluence of 30%, and the state of the medium was photographed after 48 hours.
Then, after 48 hours, the bottom face of the rectangular flask was photographed from one end to the other, and the cell count was calculated. Incidentally, Referring to FIG. 8, a “position proximal to the magnet” means within a projection area of the magnet end surface at the bottom of the rectangular flask, and a “position distal to the magnet” means a region on the side opposite the magnet end surface at the bottom of the rectangular flask.
As a result, the magnetic drugs and the system equipped with magnetism-generating means according to the present invention can thus allow the drugs to become concentrated in target tissues and tissues of individuals.

Oc1ccccc1C=NCCN=Cc1ccccc1O.[Fe+2] [diatomic Fe salen complex compound]
temperature of sample 300 seconds later [1]: approximately 53 degrees Celsius
temperature of sample immediately after the measurement (0 second) [1]: 26 degrees Celsius

[Fe+2].[O-]c1ccccc1C=NCCN=Cc1ccccc1[O-] [Fe salen complex compound]
magnetization [2]: largest magnetization
temperature of ointment immediately after the measurement (0 second) ([3]; Kenalog base, 100 mmol): 35 degrees Celsius
temperature rise of ointment ([3]; Kenalog base, 200 mmol): approximately 5 degrees Celsius
temperature of ointment immediately after the measurement (0 second) ([3]; Kenalog base, 200 mmol): 35 degrees Celsius
temperature of ointment immediately after the measurement (0 second) ([3]; Vaseline base, 100 mmol): 35 degrees Celsius
temperature rise of ointment ([3]; Vaseline base, 200 mmol): approximately 5 degrees Celsius
temperature of ointment immediately after the measurement (0 second) ([3]; Vaseline base, 200 mmol): 35 degrees Celsius
melanoma extension (area of melanoma pigmentation) ([4]; SC group: 50 mg/kg i.v., no magnetic field): 63.68±16.3%
melanoma extension (area of melanoma pigmentation) ([4]; SC+Mag group: 50 mg/kg i.v. plus bar magnet 630 mT, 3 hour): 9.05±3.42%
histological examination, tumor expansion of melanoma ([4]; SC, no magnetic field): tumor expansion of melanoma diminished
histological examination, tumor expansion of melanoma ([4]; with magnetic force field application): mostly disappeared
drug retention in right kidney (SNR by MRI, T1 and T2 mode) [5]: possible to make the drug stay in the right kidney
number of cells at position proximal to the magnet vs position distal to the magnet [6]: dramatically lower number of cells

— patent publication US20140206635A1, “METAL-SALEN COMPLEX COMPOUND, LOCAL ANESTHETIC AND ANTINEOPLASTIC DRUG” (IHI CORPORATION, priority 2011, published 2014)
